Source: patent publication US11957680B2, “Pyruvate kinase activators for use in treating blood disorders” (Agios Pharmaceuticals, Inc., priority 2017, dated 2024)

Experiments:
[1] = target: T1, wild type PKR (Homo sapiens, UniProt P30613); experiment: Cell based ATP assay in purified red blood cells (Cell-Titer-Glo); design: endogenous in cells; host or cells: purified red blood cells from healthy volunteers; conditions: overnight at 37° C., ATP levels; for AC50 / Cell based ATP assay AC50: Table 2, RBCs; for EC50 / Cell based ATP assay: Table 4, AC50, RBCs
Procedure: Example 16. Red Blood Cell (RBC) Purification
Fresh blood drawn from healthy volunteers into K2EDTA tubes was collected. Whole blood was pelleted by spinning at 500 g for 10 minutes. Cut transfusion bag port off of Purecell leukocyte reduction neofilter (Fisher NC0267633) one (1) inch above filter. Attach a 10 ml syringe barrel to the remaining cut tubing attached to neofilter. The plasma layer was removed from the pellet of the whole blood and the pellet was resuspended in 2× volume of phosphate buffered saline (PBS). Transfer 9 ml re-suspended blood cell pellet to prepared 10 ml syringe that is attached to the neofilter. Allow whole blood to gravity flow through filter until all fluid runs through upper tubing into filter disc. Add plunger to the syringe, remove syringe from clamp and invert the filter, then plunge air through the syringe filter system. Using a new 5 ml syringe, remove filtered RBCs from the bag by the syringe port and transfer purified RBCs to a 5 ml snap cap tube that has been incubated on ice. Spin 5 ml snap cap tube at 500 g for 10 minutes at 15 C, aspirate supernatant and resuspend in AGAM (1×PBS, 1% glucose, 170 mg/L adenine, 5.25 g/L mannitol) at a density of 4×10^9 cells/mL.
Example 17. Cell Based ATP Assay
For cell based ATP assays, the compound as described herein was prepared in 100% DMSO as a 10 mM stock. Serial dilutions (1:4) were performed in 96-well V-bottom storage plate and then added 1:100 to 96-well V-bottom plates containing AGAM. RBCs were diluted in AGAM media to a density of 1×10^7 cells/mL before added 90 μL/well to black clear bottom assay plates (final compound concentration at 0.1% DMSO concentration). Assay plates were sealed using aluminum foil seals and incubated overnight at 37° C. in a humidified chamber. ATP levels were read out using Cell-Titer-Glo (Promega).

[2] = target: PKR R510Q (Homo sapiens, UniProt P30613, R510Q); experiment: PKR mutant assay (R510Q), AC50, LDH/NADH-coupled, absorbance at 340 nm; format: biochemical; conditions: for AC50 / PK R510Q AC50: Table 2, enzyme assay; for AC50: read-out: PK R510Q AC50; for EC50: read-out: PK R510Q
Procedure: (§1) Example 11. PKR Mutant Assay
(§2) PKR or PKR mutant enzyme solution was diluted into a reaction mix, which contains 1× buffer (100 mM KCl, 50 mM Tris pH 7.5, 5 mM MgCl2) as well as PEP (conc depends on enzyme), 180 μM NADH, 0.5 units LDH, 1 mM DTT, 0.03% BSA; final assay concentrations after 1.11 fold dilution are indicated.
(§3) 2 μL of test compound was added into wells first, and then 180 μL reaction mix was added.
(§4) Reactions mixture with test compound was assembled except for ADP, and plates were stored for 60 minutes at room temperature.
(§5) 20 uL ADP was added to start reaction at room temperature and reaction progress was measured as changes in absorbance at 340 nm wavelength at room temperature.
(§6) Test Compound Preparation:
(§7) Test compound stock was made at 100× concentration in 100% DMSO (10 mM)
(§8) 1 to 3 dilutions were made for 11 points (i.e. 50 μl of first concentration added to 100 μl 100% DMSO to yield 3.33 mM, 50 μl of this added to 100 μl DMSO to yield 1.11 mM, and so forth) • 1 to 100 dilution into assay (2 μl in 200 μl) yielded starting concentration of 100 μM, decreasing 3 fold for 11 points.
(§9) Assay Buffer: 100 mM KCl, 50 mM Tris 7.5, 5 mM MgCl2, 1 mM DTT, 0.03% BSA
(§10) Reaction Mixture: PKR mutant enzyme: 40-400 ng/well; ADP: 0.2-1.65 mM; PEP: 0.1-0.5 mM; NADH: 180 μM; LDH: 0.5 units (Sigma #59023); DTT: 1 mM; BSA: 0.03%.

[3] = target: T1, wild type PKR; experiment: PKR (wild type) enzyme AC50 assay, LDH/NADH-coupled, absorbance at 340 nm; format: biochemical; conditions: for AC50: read-out: PKR WT AC50; for EC50: Table 4, AC50, enzyme assay, read-out: PKR WT
Procedure: as §1, §2, §3, §4, §5, §6, §7, §8, §9, §10

[4] = target: PKR K410E (Homo sapiens, UniProt P30613, K410E); experiment: PKR mutant assay (K410E), AC50, LDH/NADH-coupled, absorbance at 340 nm; format: biochemical
Procedure: as §1, §2, §3, §4, §5, §6, §7, §8, §9, §10

PKR R510Q, sequence (P30613 whole entry R510Q): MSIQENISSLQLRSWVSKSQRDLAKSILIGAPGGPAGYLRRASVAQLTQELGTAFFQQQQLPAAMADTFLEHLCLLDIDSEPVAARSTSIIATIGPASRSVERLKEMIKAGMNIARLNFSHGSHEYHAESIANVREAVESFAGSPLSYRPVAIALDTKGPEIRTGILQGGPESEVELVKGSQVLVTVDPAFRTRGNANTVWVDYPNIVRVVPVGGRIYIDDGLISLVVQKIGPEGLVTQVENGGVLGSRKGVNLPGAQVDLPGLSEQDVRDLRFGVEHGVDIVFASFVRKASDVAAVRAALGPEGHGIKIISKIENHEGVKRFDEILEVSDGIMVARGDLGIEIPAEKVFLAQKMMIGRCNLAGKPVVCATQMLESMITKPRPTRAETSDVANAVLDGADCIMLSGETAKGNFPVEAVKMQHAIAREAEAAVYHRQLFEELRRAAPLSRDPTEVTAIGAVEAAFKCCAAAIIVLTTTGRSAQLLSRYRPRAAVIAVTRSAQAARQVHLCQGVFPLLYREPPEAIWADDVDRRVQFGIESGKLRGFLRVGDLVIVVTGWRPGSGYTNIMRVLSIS
PKR K410E, sequence (P30613 whole entry K410E): as the sequence (P30613 whole entry R510Q) above, with K410E, Q510R counted along it
T1 sequence (P30613 whole entry): as the sequence (P30613 whole entry R510Q) above, with Q510R counted along it

SMILES | AC50 [1] | AC50 [2] | AC50 ([3]; Table 2, enzyme assay) | AC50 ([4]; Table 2, enzyme assay) | EC50 [1] | EC50 ([2]; Table 4, AC50, enzyme assay) | EC50 [3] | EC50 ([4]; Table 4, AC50, enzyme assay) | further results
Cc1nc2c(s1)c1cnn(Cc3ccc4[nH]ncc4c3)c(=O)c1n2C [Compound 29] | > 1000 nM | < 300 nM | < 300 nM | < 300 nM |  |  |  |  | 
Cc1nc2c(s1)c1cnn(Cc3ccc4cn[nH]c4c3)c(=O)c1n2C [Compound 33] | > 1000 nM | 301 to 800 nM | > 800 nM | > 800 nM |  |  |  |  | 
Cn1c2nc(Cc3ccc(=O)[nH]c3)sc2c2cnn(Cc3cccc4[nH]ncc34)c(=O)c21 [Compound 174] |  | > 800 nM | > 800 nM | 301 to 800 nM |  |  |  |  | Cell based ATP assay AC50 [1]: No Fit
Cn1c2nc(CCO)sc2c2cnn(Cc3cccc4[nH]ncc34)c(=O)c21 [Compound 124] | ≤ 1000 nM | < 300 nM | < 300 nM | < 300 nM |  |  |  |  | 
Cn1c2nc(Cc3ccc[nH]c3=O)sc2c2cnn(Cc3cccc4[nH]ncc34)c(=O)c21 [Compound 228] |  |  |  |  | ≤ 1000 nM | < 300 nM | < 300 nM | < 300 nM | 
Cn1c2nc(Cc3cn[nH]n3)sc2c2cnn(Cc3cccc(OC(F)(F)F)c3F)c(=O)c21 [Compound 329] |  |  |  |  | ≤ 1000 nM | < 300 nM | 301 to 800 nM | 301 to 800 nM | 
Cc1nc2c(s1)c1cnn(Cc3ccc(O)cc3)c(=O)c1n2C [Compound 16] |  | < 300 nM | < 300 nM | < 300 nM |  |  |  |  | 
CSc1nc2c(s1)c1cnn(Cc3ccnc(=O)[nH]3)c(=O)c1n2C [Compound 96] |  |  | > 800 nM | > 800 nM |  |  |  |  | Cell based ATP assay AC50 [1]: No Fit; PK R510Q AC50 [2]: No Fit
Cn1c2nc(Cc3cc[nH]n3)sc2c2cnn(Cc3ccc4nc[nH]c4n3)c(=O)c21 [Compound 381] |  |  |  |  | ≤ 1000 nM | < 300 nM | < 300 nM | < 300 nM | 
Cn1c2nc(C(c3cccc4[nH]ncc34)S(=O)(=O)c3ccccc3)sc2c2cnn(Cc3cccc4[nH]ncc34)c(=O)c21 (stereo not drawn) [Compound 133] | > 1000 nM | > 800 nM | > 800 nM | > 800 nM |  |  |  |  | 
Cn1c2nc(Cc3c[nH]nn3)sc2c2cnn(Cc3ccc(OC(F)(F)F)cc3)c(=O)c21 [Compound 295] |  |  |  |  | ≤ 1000 nM | < 300 nM | < 300 nM | < 300 nM | 
O=c1c2c(cnn1Cc1ccccc1)c1sc(Cc3ccccn3)nc1n2-c1ccccc1 [Compound 405] |  |  |  |  |  |  | > 800 nM |  | Cell based ATP assay [1]: No Fit; PK R510Q ([2]; Table 4, AC50, enzyme assay): No Fit; PKR K410E ([4]; Table 4, AC50, enzyme assay): No Fit
Cn1c2nc(Cc3cscn3)sc2c2cnn(Cc3cccc4[nH]ncc34)c(=O)c21 [Compound 227] |  |  |  |  | ≤ 1000 nM | < 300 nM | < 300 nM | < 300 nM | 
CC(=O)c1cccc(Cn2ncc3c4sc([S+](C)[O-])nc4n(C)c3c2=O)c1 (stereo not drawn) [Compound 86] | > 1000 nM | > 800 nM | < 300 nM | > 800 nM |  |  |  |  | 
Cn1c2nc(Cc3csc(C(N)=O)n3)sc2c2cnn(Cc3cccc4[nH]ncc34)c(=O)c21 [Compound 206] |  |  |  |  | > 1000 nM | > 800 nM | > 800 nM | > 800 nM | 
Cn1c2nc(Cc3n[nH]cc3F)sc2c2cnn(Cc3cccc4[nH]ncc34)c(=O)c21 [Compound 236] |  |  |  |  | ≤ 1000 nM | < 300 nM | < 300 nM | < 300 nM | 
Cn1c2nc(Cc3ccns3)sc2c2cnn(Cc3cccc4[nH]ncc34)c(=O)c21 [Compound 209] |  |  |  |  | ≤ 1000 nM | > 800 nM | > 800 nM | > 800 nM | 
Cn1c2nc(Cc3ccccc3)sc2c2cnn(Cc3cccc4[nH]ncc34)c(=O)c21 [Compound 91] | ≤ 1000 nM | < 300 nM | < 300 nM | < 300 nM |  |  |  |  | 

SMILES | AC50 [1] | AC50 [2] | AC50 ([3]; Table 2, enzyme assay) | AC50 ([4]; Table 2, enzyme assay) | EC50 [1] | EC50 ([2]; Table 4, AC50, enzyme assay) | EC50 [3] | EC50 ([4]; Table 4, AC50, enzyme assay) | further results
COc1cccc(Cn2ncc3c4sc(S(C)(=O)=O)nc4n(C)c3c2=O)c1 [Compound 25] | > 1000 nM | < 300 nM | < 300 nM | < 300 nM |  |  |  |  | 
Cn1c2nc(Cc3cccc4[nH]nnc34)sc2c2cnn(Cc3cccc4[nH]ncc34)c(=O)c21 [Compound 225] |  |  |  |  | ≤ 1000 nM | < 300 nM | < 300 nM | < 300 nM | 
Cn1cc(Cc2nc3c(s2)c2cnn(Cc4cccc5[nH]ncc45)c(=O)c2n3C)cn1 [Compound 186] |  |  |  |  | ≤ 1000 nM | 301 to 800 nM | > 800 nM | > 800 nM | 
Cc1nc2c(s1)c1cnn(CO)c(=O)c1n2C [Compound 21] |  |  | > 800 nM | > 800 nM |  |  |  |  | Cell based ATP assay AC50 [1]: No Fit; PK R510Q AC50 [2]: No Fit
Cn1c2nc(NC(=O)Cc3cc[nH]n3)sc2c2cnn(Cc3cccc4[nH]ncc34)c(=O)c21 [Compound 180] | > 1000 nM | > 800 nM | > 800 nM | > 800 nM |  |  |  |  | 
CSc1nc2c(s1)c1cnn(Cc3cnc(=O)[nH]c3)c(=O)c1n2C [Compound 95] |  |  |  |  |  |  |  |  | Cell based ATP assay AC50 [1]: No Fit; PK R510Q AC50 [2]: No Fit; PKR WT AC50 ([3]; Table 2, enzyme assay): No Fit; PKR K410E AC50 ([4]; Table 2, enzyme assay): No Fit
Cn1c2nc(Cc3nccs3)sc2c2cnn(Cc3cccc4[nH]ncc34)c(=O)c21 [Compound 222] |  |  |  |  | ≤ 1000 nM | < 300 nM | < 300 nM | < 300 nM | 
Cc1nc2c(s1)c1cnn(Cc3c[nH]cn3)c(=O)c1n2C [Compound 42] | > 1000 nM | > 800 nM | > 800 nM | > 800 nM |  |  |  |  | 
Cn1c2nc(Cc3cc[nH]n3)sc2c2cnn(CC3CCCCC3)c(=O)c21 [Compound 397] |  |  |  |  |  | > 800 nM | > 800 nM | > 800 nM | Cell based ATP assay [1]: No Fit
Cn1c2nc(Cc3cnc(N)s3)sc2c2cnn(Cc3cccc4[nH]ncc34)c(=O)c21 [Compound 229] |  |  |  |  | > 1000 nM | 301 to 800 nM | 301 to 800 nM | 301 to 800 nM | 
Cn1c2nc(Cc3cc[nH]n3)sc2c2cnn(Cc3ccc(C(N)=O)cc3)c(=O)c21 [Compound 176] | > 1000 nM | > 800 nM | > 800 nM | > 800 nM |  |  |  |  | 
Cc1nc2c(s1)c1cnn(Cc3cccc(CO)c3)c(=O)c1n2C [Compound 45] | ≤ 1000 nM | < 300 nM | < 300 nM | < 300 nM |  |  |  |  | 
Cn1c2nc(C(O)c3ccccc3)sc2c2cnn(Cc3cccc4[nH]ncc34)c(=O)c21 (stereo not drawn) [Compound 117] | > 1000 nM | 301 to 800 nM | < 300 nM | < 300 nM |  |  |  |  | 
Cn1c2nc(Cn3cncn3)sc2c2cnn(Cc3cccc4[nH]ncc34)c(=O)c21 [Compound 293] |  |  |  |  | ≤ 1000 nM | 301 to 800 nM | < 300 nM | < 300 nM | 
O=c1c2c(cnn1Cc1ccccc1)c1sc(Cc3ccccn3)nc1n2-c1nccs1 [Compound 411] |  |  |  |  |  | > 800 nM | > 800 nM | > 800 nM | Cell based ATP assay [1]: No Fit
Cn1c2nc([S+](C)[O-])sc2c2cnn(Cc3ccnc(N)c3)c(=O)c21 (stereo not drawn) [Compound 78] | ≤ 1000 nM | > 800 nM | > 800 nM | > 800 nM |  |  |  |  | 
COc1cccc(Cn2ncc3c4sc(C(F)c5ccccc5)nc4n(C)c3c2=O)c1 (stereo not drawn) [Compound 12] |  | < 300 nM | < 300 nM | < 300 nM |  |  |  |  | 
COc1ccc(Cn2ncc3c4sc(C)nc4n(C)c3c2=O)cc1 [Compound 2] | ≤ 1000 nM |  | < 300 nM | < 300 nM |  |  |  |  | 
